We go through 2 molecules from patent US20190307713A1, “COMBINATIONS OF DICLOFENAC AND H2 RECEPTOR ANTAGONISTS FOR THE TREATMENT OF PAIN AND INFLAMMATION” (priority 2016, published 2019).

Structures are written as SMILES.

Data set [1] has as its system Caco-2 intestinal permeability model. Briefly: Caco-2 permeability study of diclofenac potassium and famotidine separately and in combination. The format is in vitro ADME. Conditions: Caco-2, 50 μg/ml diclofenac potassium (20 μg/ml famotidine in combination). How it is done: The permeability study designed using Caco-2 intestinal permeability model was prepared by using Millipore 96 well insert plate as 10,000 cells/well on Feb. 21, 2017 and placed in an incubator. Tests on integrity, viability and permeability were performed on Mar. 15, 2017. Viability results were obtained by MTT and integrity results were obtained using Lucifer yellow and the plate was determined to be eligible for permeability study. […] Methanol was used as solvent for the samples and the samples were analyzed in LC/MSMS 8040 analyzer using mobile phase, Methanol+bidistillated water+Ammonium formate.
For orientation: Caco-2 cells form a polarised layer with tight junctions and transporters.

The nature of data set [2]: in vivo. The following applies: male, Wistar, rat, po. The protocol: Male Wistar rats (240-260 g) were maintained in an air conditioned quarters at a temperature of 22±2° C. and a relative humidity of 50±10%. Food and water were allowed ad libitum. The animals were acclimatized to the facilities for five days, and then fasted with free access to water for 12 h prior to the experiment. All these animals were housed under similar conditions.
Blood (0.2 ml) was taken from the tail vein prior to administration of test substances (0 h) and blood was taken after 0.083, 0.167, 0.25, 0.5, 1, 2, 4, 8 and 12 h respectively.
Blood samples were collected in tubes containing %5 Nat-EDTA and kept on ice until dichloromethane was added and they were centrifuged at 7000×g for 5 min at 4° C. and supernatants were collected for HPLC analysis.

The conditions of data set [3]: oral, instant or immediate release formulations; cited from earlier work.

Broadly, the Cmax is the highest concentration seen after dosing. As usually defined, the Tmax is the time from dosing to the highest level.

Turning to `O=C(O)Cc1ccccc1Nc1c(Cl)cccc1Cl` [Diclofenac potassium, 2-[2-(2,6-dichloroanilino)phenyl]acetic acid], the “Permeability percentage of Diclofenac potassium” value in data set [1] (1 hour) is given as 76.93%; in data set [1] (1.5 hours) it was 80.76%; in data set [1] (2 hours) it was 81.80%; in data set [1] (4 hours) it was 82.22%; in data set [1] (8 hours), 86.32%. The molecule also registered a Cmax in data set [2] of 1.24 ng/mL. For the same molecule, the Tmax in data set [2] was 15 min.

In the case of `O=C(O)Cc1ccccc1Nc1c(Cl)cccc1Cl` [diclofenac, 2-[2-(2,6-dichloroanilino)phenyl]acetic acid], the “Tmax (time to the maximum plasma concentration)” value in data set [3] was “about 1 hour”.
